Experimental data from ChEMBL document CHEMBL6115002, “Discovery of novel sitolactone derivative leading to PANoptosis and differentiation of acute myeloid leukemia cells” (Eur J Med Chem, 2025).
The source made the active and inactive calls. The rule behind the calls is not given here.

Test system: Kasumi 1
Test: Induction of cell cycle arrest in human Kasumi 1 cells assessed as increase in P53 level at 0.15 to 1.2 uM incubated for 24 hrs by Western blotting analysis
Type: functional, cell-based
Details: dose 0.15-1.2 µM

C=C1C[C@@H]2[C@@H](CC[C@]3(C)[C@@H](O[Si](C(C)C)(C(C)C)C(C)C)CC[C@@H]23)OC1=O
Activity: Active
